Results on eight compounds are retold here after PubChem BioAssay AID1259407 (Chemical Carcinogenesis Research Information System (CCRIS), 2018).

The series relates to CCRIS mutagenicity, Ames/micronucleus/aberration tests. The series can be described thus: CCRIS mutagenicity studies.
The mark [1] stands for this setting: Test System: AMES SALMONELLA TYPHIMURIUM, Strain/Indicator: TA98, Metabolic Activation: NONE, Method: PREINCUBATION
[2] abbreviates: Test System: AMES SALMONELLA TYPHIMURIUM, Strain/Indicator: TA98, Metabolic Activation: NONE, Method: STANDARD PLATE.
Where [3] appears, read: Test System: AMES SALMONELLA TYPHIMURIUM, Strain/Indicator: TA98, Metabolic Activation: RAT, LIVER, S-9, AROCLOR 1254, Method: STANDARD PLATE.
Setting [4] is: Test System: AMES SALMONELLA TYPHIMURIUM, Strain/Indicator: TA100, Metabolic Activation: NONE, Method: STANDARD PLATE.
The mark [5] stands for this setting: Test System: AMES SALMONELLA TYPHIMURIUM, Strain/Indicator: TA100, Metabolic Activation: RAT, LIVER, S-9, AROCLOR 1254, Method: STANDARD PLATE.
Where [6] appears, read: Test System: AMES SALMONELLA TYPHIMURIUM, Strain/Indicator: TA1535, Metabolic Activation: NONE, Method: STANDARD PLATE.
Setting [7] is: Test System: AMES SALMONELLA TYPHIMURIUM, Strain/Indicator: TA1535, Metabolic Activation: RAT, LIVER, S-9, AROCLOR 1254, Method: STANDARD PLATE.
The mark [8] stands for this setting: Test System: AMES SALMONELLA TYPHIMURIUM, Strain/Indicator: TA1537, Metabolic Activation: NONE, Method: STANDARD PLATE.
Setting [9] is: Test System: AMES SALMONELLA TYPHIMURIUM, Strain/Indicator: TA1537, Metabolic Activation: RAT, LIVER, S-9, AROCLOR 1254, Method: STANDARD PLATE.
Where [10] appears, read: Test System: AMES SALMONELLA TYPHIMURIUM, Strain/Indicator: TA1538, Metabolic Activation: NONE, Method: STANDARD PLATE.
Where [11] appears, read: Test System: AMES SALMONELLA TYPHIMURIUM, Strain/Indicator: TA1538, Metabolic Activation: RAT, LIVER, S-9, AROCLOR 1254, Method: STANDARD PLATE.

The structures appear in SMILES notation. Active and inactive are the calls of the source. The rule behind the calls is not given here.

On to `CC1=CC(=O)C=C2CC[C@@H]3[C@H](CC[C@]4(C)C(=O)CC[C@@H]34)[C@@]12C`, for which the mutagenic call is “inactive; negative” (End Point: IN VITRO CHROMOSOMAL ABERRATIONS, Test System: HUMAN PERIPHERAL LYMPHOCYTES, Metabolic Activation: NONE); “inactive; negative” (End Point: IN VITRO CHROMOSOMAL ABERRATIONS, Test System: HUMAN PERIPHERAL LYMPHOCYTES, Metabolic Activation: RAT, LIVER, S-9, AROCLOR 1254); “inactive; negative” (End Point: IN VIVO MICRONUCLEUS, Test System: BONE MARROW POLYCHROMATIC ERYTHROCYTES, Species: MOUSE, Strain/Sex: NMRI/MALE, FEMALE, Route: INTRAGASTRIC); “inactive; negative” under setting [1]; “inactive; negative” under setting [2]; “inactive; negative” (Test System: AMES SALMONELLA TYPHIMURIUM, Strain/Indicator: TA98, Metabolic Activation: RAT, LIVER, S-9, AROCLOR 1254, Method: PREINCUBATION). Also, the mutagenic call under setting [3] was “inactive; negative”; the mutagenic call (Test System: AMES SALMONELLA TYPHIMURIUM, Strain/Indicator: TA100, Metabolic Activation: NONE, Method: PREINCUBATION) is “inactive; negative”; the mutagenic call under setting [4] is “inactive; negative”; the mutagenic call (Test System: AMES SALMONELLA TYPHIMURIUM, Strain/Indicator: TA100, Metabolic Activation: RAT, LIVER, S-9, AROCLOR 1254, Method: PREINCUBATION) was “inactive; negative”; the mutagenic call under setting [5] was “inactive; negative”; the mutagenic call (Test System: AMES SALMONELLA TYPHIMURIUM, Strain/Indicator: TA1535, Metabolic Activation: NONE, Method: PREINCUBATION) is “inactive; negative”. In addition, the mutagenic call under setting [6] is “inactive; negative”; the mutagenic call (Test System: AMES SALMONELLA TYPHIMURIUM, Strain/Indicator: TA1535, Metabolic Activation: RAT, LIVER, S-9, AROCLOR 1254, Method: PREINCUBATION) was “inactive; negative”; the mutagenic call under setting [7] is “inactive; negative”; the mutagenic call (Test System: AMES SALMONELLA TYPHIMURIUM, Strain/Indicator: TA1537, Metabolic Activation: NONE, Method: PREINCUBATION) was “inactive; negative”; the mutagenic call under setting [8] is “inactive; negative”; the mutagenic call (Test System: AMES SALMONELLA TYPHIMURIUM, Strain/Indicator: TA1537, Metabolic Activation: RAT, LIVER, S-9, AROCLOR 1254, Method: PREINCUBATION) is “inactive; negative”. The mutagenic call runs as follows: under setting [9], “inactive; negative”; (Test System: AMES SALMONELLA TYPHIMURIUM, Strain/Indicator: TA1538, Metabolic Activation: NONE, Method: PREINCUBATION) “inactive; negative”; under setting [10], “inactive; negative”; (Test System: AMES SALMONELLA TYPHIMURIUM, Strain/Indicator: TA1538, Metabolic Activation: RAT, LIVER, S-9, AROCLOR 1254, Method: PREINCUBATION) “inactive; negative”; under setting [11], “inactive; negative”; (Test System: CHINESE HAMSTER V-79, Strain/Indicator: V-79 (HGPRT)/6-THIOGUANINE, Metabolic Activation: NONE) “inactive; negative”. Further, the mutagenic call (Test System: CHINESE HAMSTER V-79, Strain/Indicator: V-79 (HGPRT)/6-THIOGUANINE, Metabolic Activation: RAT, LIVER, S-9, AROCLOR 1254) was “inactive; negative”.

Consider `c1ccc2c(c1)ccc1nc3ccc4ccccc4c3cc12`, for which the mutagenic call (Test System: AMES SALMONELLA TYPHIMURIUM, Strain/Indicator: TA98, Metabolic Activation: GUINEA PIG, LIVER, S-9, 3-METHYLCHOLANTHRENE, Method: STANDARD PLATE) was “inactive; negative”; the mutagenic call (Test System: AMES SALMONELLA TYPHIMURIUM, Strain/Indicator: TA100, Metabolic Activation: GUINEA PIG, LIVER, S-9, 3-METHYLCHOLANTHRENE, Method: STANDARD PLATE) is “active; positive”; the mutagenic call under setting [5] is “active; positive”; the mutagenic call under setting [9] is “active; positive”; the mutagenic call (Test System: AMES SALMONELLA TYPHIMURIUM, Strain/Indicator: TA1537, Metabolic Activation: RAT, LIVER, S-9, PHENOBARBITAL, Method: STANDARD PLATE) is “active; positive”; the mutagenic call (Test System: AMES SALMONELLA TYPHIMURIUM, Strain/Indicator: TA1538, Metabolic Activation: RAT, LIVER, S-9, PHENOBARBITAL, Method: STANDARD PLATE) is “active; positive”. In addition, the mutagenic call (Test System: CHINESE HAMSTER V-79, Strain/Indicator: V-79/6-THIOGUANINE, Metabolic Activation: GUINEA PIG, LIVER, S-9, 3-METHYLCHOLANTHRENE) is “active; positive”.

As to `c1ccc(CN2CCN=N2)cc1`, the mutagenic call under setting [6] is “active; positive”.

Turning to `CC(=O)C[C@@H]1CCCCCC(=O)O[C@H](CC(C)=O)CCC(=O)CCC(=O)O1`, the mutagenic call (Test System: CHINESE HAMSTER V-79, Strain/Indicator: V-79 (HPRT)/6-THIOGUANINE, Metabolic Activation: NONE) was “active; positive”.

Turning to `COC(=O)c1ccc(CN(C)N=O)cc1`, the mutagenic call was “inactive; negative” (Test System: AMES SALMONELLA TYPHIMURIUM, Strain/Indicator: TA1535, Metabolic Activation: HAMSTER, LIVER, S-9, AROCLOR 1254, Method: STANDARD PLATE) and “inactive; negative” under setting [6].

Regarding `CC(=O)[C@]1(O)Cc2c(O)c3c(c(O)c2[C@@H](O[C@H]2C[C@H](N)[C@H](O)[C@H](C)O2)C1)C(=O)c1c(O)cccc1C3=O`, the mutagenic call (Test System: AMES SALMONELLA TYPHIMURIUM, Strain/Indicator: GW257, Metabolic Activation: NONE, Method: STANDARD PLATE) was “active; positive”; the mutagenic call (Test System: AMES SALMONELLA TYPHIMURIUM, Strain/Indicator: TA97, Metabolic Activation: NONE, Method: STANDARD PLATE) was “active; positive”; the mutagenic call under setting [1] was “active; positive”; the mutagenic call under setting [2] is “active; positive”; the mutagenic call under setting [3] was “active; positive”; the mutagenic call under setting [4] was “active; positive”. Moreover, the mutagenic call (Test System: AMES SALMONELLA TYPHIMURIUM, Strain/Indicator: TA104, Metabolic Activation: NONE, Method: STANDARD PLATE) was “inactive; negative”; the mutagenic call under setting [10] is “active; positive”; the mutagenic call (Test System: AMES SALMONELLA TYPHIMURIUM, Strain/Indicator: TA2637, Metabolic Activation: NONE, Method: STANDARD PLATE) is “active; positive”.

With `c1ccc(CN2C3c4ccccc4-c4ccccc4C32)cc1` (stereo unspecified), the mutagenic call under setting [4] is “active; positive”.

On to `CC(C)N(C(=O)SCC(Cl)=C(Cl)Cl)C(C)C`, for which the mutagenic call is “inactive; negative” under setting [2]; “active; positive” under setting [3]; “inactive; negative” under setting [4]; “active; positive” under setting [5]; “inactive; negative” under setting [6]; “active; positive” under setting [7]. Also, the mutagenic call under setting [8] was “inactive; negative”, the mutagenic call under setting [9] was “inactive; negative”, the mutagenic call under setting [10] is “inactive; negative” and the mutagenic call under setting [11] was “inactive; negative”.
